Experimental data as given in patent US20250206758A1, “SUBSTITUTED BRIDGED RING INHIBITOR, PREPARATION METHOD THEREFOR AND APPLICATION THEREOF” (SUZHOU ZELGEN BIOPHARMACEUTICALS CO., LTD., priority 2022, published 2025).
Counter-ions that a name gives are not always drawn. Like-named read-outs stand apart in the source and are kept apart here.

How the values were obtained:
AsPC-1 = experiment: Cell proliferation inhibition, AsPC-1 (CellTiter-Glo 3D, 7 days); assay type: cell-based; conditions: AsPC-1, 7 days
Description: (§1) • (a) Resuscitating cells in T75 cell culture flask: • (b) When the cell confluence reaches 80-90%, subculturing the cells.
(§2) The diluted test compound was added to a 384-well cell culture plate with a nanoliter pipetting system, and duplicate wells were set up. An equal volume of culture medium was added to the positive control group; and an equal volume of DMSO was added to the negative control group, then centrifugation was conducted at 1000 rpm for 1 min at room temperature.
(§3) Cells were inoculated into a) 384-well culture plate, with an equal volume of cells added to the negative control group, and only an equal volume of culture medium added to the positive control group. The plate was centrifuged at 1000 rpm for 1 min at room temperature, and the final DMSO concentration of the compound was 0.5% at last. The plate was placed in a 37° C., 5% CO2 constant temperature incubator for 7 days.
(§4) 20 μL/well of CellTiter-Glo® 3D to b) was added to 384-well cell culture plate, and the plate was shook at 320 rpm for 20 min in the dark, and incubated at room temperature in the dark for 2 hrs.
(§5) The luminescence value was read using an Envision multi-functional microplate reader.
(§6) The inhibition rate (IR) of the test compound was calculated using the following formula: IR (%)=(1−(RLU compound−RLU blank control)/(RLU meidum control−RLU blank control))*100%. The inhibition rates of different concentrations of compounds were calculated in Excel, and then the inhibition curves were plotted and the related parameters (including the minimum inhibition rate, maximum inhibition rate and IC50) were calculated using GraphPad Prism software.

GP2D = experiment: Cell proliferation inhibition, GP2D (CellTiter-Glo 3D, 7 days); assay type: cell-based
Description: as §1, §2, §3, §4, §5, §6

SMILES: C#Cc1c(F)ccc2cc(O)cc(-c3ncc4c(N5C[C@H]6CC[C@@H](C5)N6)nc(OC[C@@]56C[C@H](F)CN5C[C@]5(CC5(F)F)C6)nc4c3F)c12 [Example 15H, 4-(4-((1R,5S)-3,8-diazabicyclo[3.2.1]octan-3-yl)-8-fluoro-2-(((1R,6'S,7a′R)-2,2,6′-trifluorodihydro-1′H,3′H-spiro[cyclopropan-1,2′-pyrrolizin]-7a′(5′H)-yl)methoxy)pyridino[4,3-d]pyrimidin-7-yl)-5-ethynyl-6-fluoronaphthalen-2-ol]
- IC50 (AsPC-1; Homo sapiens, ASPC1, 168 h): 226 nM
- IC50 (GP2D; 168 h): 9.3 nM

SMILES: Nc1cnc(C(F)(F)F)c(-c2ncc3c(N4C[C@H]5CC[C@@H](C4)N5)nc(OC[C@@]45CCCN4C[C@@]4(CC4(F)F)C5)nc3c2F)c1 [Example 52, 5-(4-((1R,5S)-3,8-diazabicyclo[3.2.1]octan-3-yl)-2-(((1S,7a'S)-2,2-difluorodihydro-1′H,3′H-spiro[cyclopropan-1,2′-pyrrolizin]-7a′(5′H)-yl)methoxy)-8-fluoropyridino[4,3-d]pyrimidin-7-yl)-6-(trifluoromethyl)pyridin-3-amine]
- IC50 (AsPC-1; Homo sapiens, ASPC1, 168 h): > 1000 nM
- IC50 (GP2D; 168 h): > 100 nM

SMILES: C#Cc1c(F)ccc2cc(O)cc(-c3ncc4c(N5CC6CCC(C5)N6)nc(OCC56CC(F)(F)CCN5CC5(CC5)C6)nc4c3F)c12 [Example 13, 4-(4-((1R,5S)-3,8-diazabicyclo[3.2.1]octan-3-yl)-2-((7′,7′-difluorotetrahydro-3′-H-spiro[cyclopropan-1,2′-pyrrolizin]-8a′(1′H)-yl)methoxy)-8-fluoropyridino[4,3d]pyrimidin-7-yl)-5-ethynyl-6-fluoronaphthalen-2-ol trifluoroacetate]
- IC50 (AsPC-1; Homo sapiens, ASPC1, 168 h): 210 nM
- IC50 (GP2D; 168 h): 42.8 nM

SMILES: Nc1nc2c(-c3ncc4c(N5C[C@H]6CC[C@@H](C5)N6)nc(OC[C@@]56CCCN5C[C@@]5(CC5(F)F)C6)nc4c3F)ccc(F)c2s1 [Example 23, 4-(4-((1R,5S)-3,8-diazabicyclo[3.2.1]octan-3-yl)-2-(((1S,7a'S)-2,2-difluorodihydro-1′H,3′H-spiro[cyclopropan-1,2′-pyrrolizin]-7a′(5′H)-yl)methoxy)-8-fluoropyridino[4,3-d]pyrimidin-7-yl)-7-fluorobenzo[d]thiazol-2-amine]
- IC50 (AsPC-1; Homo sapiens, ASPC1, 168 h): > 1000 nM
- IC50 (GP2D; 168 h): > 100 nM

SMILES: C#Cc1c(F)ccc2cc(O)cc(-c3ncc4c(N5C[C@@H]6CC[C@](C)(C5)N6)nc(OC[C@@]56CCCN5C[C@@]5(CC5(F)F)C6)nc4c3F)c12 [Example 20B, 4-(2-(((1S,7a'S)-2,2-difluorodihydro-1′H,3′H-spiro[cyclopropan-1,2′-pyrrolizin]-7a′(5′H)-yl)methoxy)-8-fluoro-4-((1R,5S)-1-methyl-3,8-diazabicyclo[3.2.1]octan-3-yl)pyridino[4,3-d]pyrimidin-7-yl)-5-ethynyl-6-fluoronaphthol-2-ol]
- IC50 (AsPC-1): 4.86 nM
- IC50 (GP2D): 0.58 nM

SMILES: CS(=O)(=O)Nc1cc(Cl)c(C(F)(F)F)c(-c2ncc3c(N4C[C@H]5CC[C@@H](C4)N5)nc(OC[C@@]45CCCN4C[C@@]4(CC4(F)F)C5)nc3c2F)c1 [Example 39, N-(3-(4-((1R,5S)-3,8-diazabicyclo[3.2.1]octan-3-yl)-2-(((1S,7a'S)-2,2-difluorodihydro-1′H,3′H-spiro[cyclopropan-1,2′-pyrrolizin]-7a′(5′H)-yl)methoxy)-8-fluoropyridino[4,3-d]pyrimidin-7-yl)-5-chloro-4-(trifluoromethyl)phenyl)methanesulfonamide]
- IC50 (AsPC-1; Homo sapiens, ASPC1, 168 h): 521 nM
- IC50 (GP2D; 168 h): 38.3 nM

SMILES: COc1c(-c2cc(N)cc(Cl)c2C(F)(F)F)ncc2c(N3C[C@H]4CC[C@@H](C3)N4)nc(OC[C@@]34CCCN3C[C@@]3(CC3(F)F)C4)nc12 [Example 31, 3-(4-((1R,5S)-3,8-diazabicyclo[3.2.1]octan-3-yl)-2-(((1S,7a'S)-2,2-difluorodihydro-1′H,3′H-spiro[cyclopropan-1,2′-pyrrolizin]-7a′(5′H)-yl)methoxy)-8-methoxypyridino[4,3-d]pyrimidin-7-yl)-5-chloro-4-(trifluoromethyl)aniline]
- IC50 (AsPC-1; Homo sapiens, ASPC1, 168 h): 259 nM
- IC50 (GP2D; 168 h): 24.3 nM
